Experimental data as given in patent US20070117784A1, “Treatment of hyperproliferative diseases with anthraquinones” (Novacea, Inc., priority 2005, published 2007).

Experiments:
HT-29 = experiment: MTS cytotoxicity assay, HT-29; type: cell-based; conditions: normoxic, 24 h exposure
HCT116 = experiment: MTS cytotoxicity assay, HCT116; type: cell-based; conditions: 24 h exposure
LoVo = experiment: MTS cytotoxicity assay, LoVo; type: cell-based; conditions: normoxic, 24 h exposure
LS174T = experiment: MTS cytotoxicity assay, LS174T; type: cell-based; conditions: normoxic, 24 h exposure
U87MG = experiment: MTS cytotoxicity assay, U87MG; type: cell-based; conditions: Homo sapiens, U-87 MG, normoxic, 24 h exposure
U118MG = experiment: MTS cytotoxicity assay, U118MG; type: cell-based; conditions: Homo sapiens, U-118-MG, normoxic, 24 h exposure
U251 = experiment: MTS cytotoxicity assay, U251; type: cell-based; conditions: Homo sapiens, U-251, normoxic, 24 h exposure
FaDu = experiment: MTS cytotoxicity assay, FaDu; type: cell-based; conditions: Homo sapiens, normoxic, 24 h exposure
KB = experiment: MTS cytotoxicity assay, KB; type: cell-based; conditions: Homo sapiens, normoxic, 24 h exposure
KB-3 = experiment: MTS cytotoxicity assay, KB-3; type: cell-based; conditions: KB3; KB-3 (radiation-resistant); normoxic; 24 h exposure
Hep3B2.1-7 = experiment: MTS cytotoxicity assay, Hep3B2.1-7; type: cell-based; conditions: normoxic, 24 h exposure
A375-SM = experiment: MTS cytotoxicity assay, A375-SM; type: cell-based, mouse; conditions: Homo sapiens, normoxic, 24 h exposure
B16-F10 = experiment: MTS cytotoxicity assay, B16-F10; type: cell-based, human; conditions: Mus musculus, normoxic, 24 h exposure
[1] = mouse, in vivo
[2] = single 20 mg/kg dose of AQ4N; previous studies; cited from earlier work
[3] = system: bladder cancer cell lines; conditions: previous data; cited from earlier work
Raji = experiment: MTS cytotoxicity assay, Raji; conditions: Homo sapiens, 24 h
KG1a = experiment: MTS cytotoxicity assay, KG1a; conditions: Homo sapiens, KG-1a, 24 h
K562 = experiment: MTS cytotoxicity assay, K562; conditions: Homo sapiens, K562, 24 h
P388 = experiment: MTS cytotoxicity assay, P388; conditions: Mus musculus, P388, 24 h
Daudi = experiment: MTS cytotoxicity assay, Daudi; conditions: Homo sapiens, 24 h
Ramos = experiment: MTS cytotoxicity assay, Ramos; conditions: Homo sapiens, 24 h
HL-60 = experiment: MTS cytotoxicity assay, HL-60; conditions: Homo sapiens, HL-60, 24 h
L1210 = experiment: MTS cytotoxicity assay, L1210; conditions: Mus musculus, L1210, 24 h
MOLT-4 = experiment: MTS cytotoxicity assay, MOLT-4; conditions: Homo sapiens, MOLT-4, 24 h
L5178Y = experiment: MTS cytotoxicity assay, L5178Y; conditions: Mus musculus, 24 h
ARH177 = experiment: MTS cytotoxicity assay, ARH177; conditions: 24 h
BXPC-3 = experiment: MTS cytotoxicity assay, BXPC-3; conditions: Homo sapiens, BXPC-3, 24 h
Panc-1 = experiment: MTS cytotoxicity assay, Panc-1; conditions: Homo sapiens, PANC-1, 24 h
Namalwa = experiment: MTS cytotoxicity assay, Namalwa; conditions: Homo sapiens, 24 h
MiaPaCa = experiment: MTS cytotoxicity assay, MiaPaCa; conditions: Homo sapiens, MIA PaCa-2, 24 h
CCRF-CEM = experiment: MTS cytotoxicity assay, CCRF-CEM; conditions: Homo sapiens, 24 h
RPMI8226 = experiment: MTS cytotoxicity assay, RPMI8226; conditions: Homo sapiens, RPMI-8226, 24 h
CCRF-CEM/VLB = experiment: MTS cytotoxicity assay, CCRF-CEM/VLB; conditions: Homo sapiens, 24 h
RPMI8226/Dox = experiment: MTS cytotoxicity assay, RPMI8226/Dox; conditions: Homo sapiens, RPMI-8226, 24 h
[4] = system: MO59K cells (glioblastoma); experiment: Colony formation assay, combination with temozolomide and radiation
human Panc-1 tumors = experiment: sc Panc-1 pancreatic xenograft, tumor growth delay; type: in vivo, nude mice; conditions: Panc-1 sc, gemcitabine treatment
Protocol: Mice were actively sacrificed as a cancer death when their tumors reached 1200 mm^3. Shown are Kaplan-Meier plots summarizing the percentage of the animals remaining in the study as a function of time following tumor inoculation. Treatment outcome was determined from TGD, defined as the increase in median TTE in a treatment group as compared to the control group.
In each case, a range of AQ4N dose schedules were evaluated to determine the optimum dosage for efficacy as a single agent.
In the Panc-1 model, the endpoint of the study was pre-defined to be when tumors reached 1200 mm^3 and treatment outcome was determined from tumor growth delay (TGD). TGD is defined as the increase in median time to endpoint (TTE) in a treatment group as compared to the control group, and expressed in days or as a percentage of the median TTE vs. the control group.

[5] = system: human BxPC-3 pancreatic carcinoma; experiment: sc BxPC-3 pancreatic xenograft, tumor growth inhibition; type: in vivo, nude mice; conditions: BxPC-3 sc
Protocol: Shown are the mean (±SEM) tumor volumes measured from treatment and control groups following tumor challenge. The study was terminated when tumors from the vehicle-treated group reached an average of approximately 2 grams (day 27) and the % TGI was calculated as defined in the text. […] Animals were actively sacrificed when they became moribund from excessive tumor burden.

[6] = system: BxPC-3 pancreatic carcinoma (orthotopic); experiment: Orthotopic BxPC-3 pancreatic carcinoma model, survival; conditions: BxPC-3 ot; gemcitabine treatment; P=0.04

CN(C)CCNc1ccc(NCCN(C)C)c2c1C(=O)c1c(O)ccc(O)c1C2=O [AQ4, 1,4-bis{[2-(dimethylamino)ethyl]amino}-5,8-dihydroxyanthracene-9,10-dione]
IC50 (HT-29; Homo sapiens): 0.7 µM | IC50 (HCT116; Homo sapiens, HCT-116, normoxic): 3.9 µM | IC50 (LoVo; Homo sapiens): 0.21 µM | IC50 (LS174T; Homo sapiens): 0.95 µM | IC50 (U87MG): 0.9 µM | IC50 (U118MG): 1.3 µM | IC50 (U251): 0.6 µM | IC50 (FaDu): 0.3 µM | IC50 (KB): 0.6 µM | IC50 (KB-3): 3.3 µM | IC50 (Hep3B2.1-7): 0.8 µM | IC50 (A375-SM): 3.3 µM | IC50 (B16-F10): 0.02 µM | tumor accumulation vs dose ([1]; 240 mg/kg): dose-dependent fashion | percent of near maximal tumor levels after 2 hr post-infusion ([1]; 2 h): 55-85% | percent of conversion occurring by 8 hr ([1]; 8 h): 80-100% | time AQ4 can be detected in tumor tissues [2]: at least 2 weeks | interaction with radiation [3]: additive interactions | IC50 (Raji): 0.2 µM | IC50 (KG1a): 0.05 µM | IC50 (K562): 0.4 µM | IC50 (P388): 0.01 µM | IC50 (Daudi): 0.0046 µM | IC50 (Ramos): 0.008 µM | IC50 (HL-60): 0.01 µM | IC50 (L1210): 0.0012 µM | IC50 (MOLT-4): 0.002 µM | IC50 (L5178Y): 0.03 µM | IC50 (ARH177): 0.2 µM | IC50 (BXPC-3): 1.6 µM | IC50 (Panc-1): 0.4 µM | IC50 (Namalwa): 0.0002 µM | IC50 (MiaPaCa): 1.6 µM | IC50 (CCRF-CEM): 0.62 µM | IC50 (RPMI8226): 0.2 µM | IC50 (CCRF-CEM/VLB): 0.34 µM | IC50 (RPMI8226/Dox): 1.1 µM | combined cytotoxic effect with temozolomide and radiation ([4]; 48 hr combined treatment, 1.5 Gy at 24 hr, FIG. 24): additive and synergistic cytotoxic effects | combined cytotoxic effect with temozolomide ([4]; 48 hr temozolomide, 10-day colony formation, FIG. 23): additive and synergistic cytotoxic effects

CN(C)CCNc1ccc(NCC[N+](C)(C)[O-])c2c1C(=O)c1c(O)ccc(O)c1C2=O [AQ4M]
tumor level by 8 h [1]: minimal levels by 8 h for most doses | tumor level vs dose at 2 hr [1]: approximately linear with increasing dose | plasma level at 2 hr (240 mg/kg AQ4N dose): only trace amounts | metabolite detection in plasma (any AQ4N dose or time point): undetectable

COc1cccc2c1C(=O)c1c(O)c3c(c(O)c1C2=O)C[C@@](O)(C(=O)CO)C[C@@H]3O[C@H]1C[C@H](N)[C@H](O)[C@H](C)O1 [Dox, doxorubicin, reference compound]
IC50 (U87MG): 0.4 µM | IC50 (U118MG): 0.03 µM | IC50 (U251): 0.03 µM | IC50 (Raji): 0.0009 µM | IC50 (KG1a): 0.6 µM | IC50 (P388): 0.1 µM | IC50 (Daudi): 0.0005 µM | IC50 (Ramos): 0.0018 µM | IC50 (HL-60): 0.1 µM | IC50 (L1210): 0.05 µM | IC50 (MOLT-4): 0.0075 µM | IC50 (L5178Y): 0.05 µM | IC50 (Namalwa): 0.0074 µM | IC50 (RPMI8226): 0.1 µM | IC50 (RPMI8226/Dox): 54.7 µM

CCc1c2c(nc3ccc(O)cc13)-c1cc3c(c(=O)n1C2)COC(=O)[C@]3(O)CC [SN38, 7-ethyl-10-hydro-camptothecin, reference compound]
IC50 (HT-29): 0.0651 µM | IC50 (HCT116; normoxic): 0.0484 µM | IC50 (LoVo): 0.0006 µM | IC50 (LS174T): 0.0026 µM

CC(=O)O[C@H]1C(=O)[C@@]2(C)[C@H]([C@H](OC(=O)c3ccccc3)[C@]3(O)C[C@H](OC(=O)[C@H](O)[C@@H](NC(=O)c4ccccc4)c4ccccc4)C(C)=C1C3(C)C)[C@]1(OC(C)=O)CO[C@@H]1C[C@@H]2O [Taxol, reference compound]
IC50 (FaDu): 6.5 µM | IC50 (KB): 2 µM | IC50 (KB-3): 19.1 µM | IC50 (Hep3B2.1-7): 13.7 µM

CCC1=C[C@@H]2CN(C1)Cc1c([nH]c3ccccc13)[C@@](C(=O)OC)(c1cc3c(cc1OC)N(C)[C@H]1[C@@](O)(C(=O)OC)[C@H](OC(C)=O)[C@]4(CC)C=CCN5CC[C@]31[C@@H]54)C2 [VLB, vinorelbine, reference compound]
IC50 (CCRF-CEM): 0.01 µM | IC50 (CCRF-CEM/VLB): 1040 µM

Nc1ccn([C@@H]2O[C@H](CO)[C@@H](O)C2(F)F)c(=O)n1 [gemcitabine]
TGD as percentage of median TTE vs control (human Panc-1 tumors): 19% | TTE (human Panc-1 tumors; endpoint 1200 mm^3): 34.2 days | TGD (tumor growth delay) (human Panc-1 tumors; non-significant): 5.4 days | TGI ([5]; gemcitabine treatment, ~day 27): 51% | TGI in comparison to vehicle-treated groups ([5]; single-agent, p<0.001, FIG. 20A): significant TGI | IC50 (BXPC-3): 0.0595 µM | IC50 (Panc-1): 1.7 µM | IC50 (MiaPaCa): 0.023 µM | median survival [6]: 40 days
